The values below come from paper PMC10252837, “A Novel Time-Resolved Fluorescence Resonance Energy Transfer Assay for the Discovery of Small-Molecule Inhibitors of HIV-1 Tat-Regulated Transcription” (International Journal of Molecular Sciences, 2023).

Data set [1] has as its system Tat activity (Tat-induced viral transcription). Description: microbe, parasite or virus in culture. Conditions: for IC50: read-out: IC50 of Tat Activity. Type of data set: cell-based, HIV-1. How it is done:
(§1) (A) (Upper panel) Doxycycline (Dox)-inducible Tat-expressing bl-DTR cells cultured in 96-well plates treated with two-fold serial dilutions of each compound in the presence of Dox (50 ng/mL). At 24 h after treatment, the activity of firefly luciferase (F-Luc), indicating Tat activity, was determined as described in the Materials and Methods section. (Bottom panel) TZM-bl cells were treated with two-fold serial dilutions of the indicated compound and then infected with the HIV-1NL4-3 strain at a multiplicity of infection (MOI) of 1. At 24 h after infection, the viral infectivity and cell viability were determined as described in the Materials and Methods section. […] (B) 2 × 10^5 TZM-bl cells growing in 6-well plates were infected with HIV-1 (MOI = 1), transfected with a Tat-expressing plasmid (2 μg) or treated with PMA ([…]) upon indicated compounds at indicated concentrations, respectively. At 24 h after treatment, LTR promoter activity was determined via a Bright-Glo Luciferase Assay Kit. The relative activities are represented as the mean ± SD (n = 3) compared with the DMSO vesicle. (C) The biotinylated TAR RNA (2 nM) was incubated with ARM peptide (100 nM) in the presence of increasing amounts of the hit compound and separated on a 3–12% native polyacrylamide gel. The mobility of biotinylated TAR RNA was detected by chemiluminescence.
The inhibitory effect of hit compounds on Tat-mediated transcription was determined using doxycycline (Dox)-inducible Tat-expressing TZM-bl cells that express the LTR-driven firefly luciferase (F-Luc) gene under the control of Tat upon Dox treatment, as described previously but with minor modifications. In brief, 1 × 10^4 of the cells were cultured in 96-well plates, treated with compounds at a concentration of 10 µM (in the second round of screening), and then treated with Dox (final concentration: 50 ng/mL). After 24 h, the inhibitory effect of the hit compounds on Tat activity was determined by measuring F-Luc activity using a Bright-Glo Luciferase Assay Kit (Promega, Madison, WI, USA). For the dose–response assay, cells cultured in 100 μL medium were treated with 50 μL of 1:2 serially diluted compounds at concentrations ranging from 0 to 12.5 µM and then treated with 50 μL of Dox (final concentration: 50 ng/mL). At 24 h post-treatment, the F-Luc activity was determined as described above. All luminescence assays were carried out in a SpectraMax Paradigm Microplate Reader (Molecular Devices, San Jose, CA, USA), and the data were expressed as a relative percentage (%) compared to the DMSO control (vehicle) in the presence of Dox. The experiments were performed in triplicate.

Data set [2] deals with HIV-1NL4-3. The data set is described as follows: HIV-1 infectivity in TZM-bl cells (LTR-driven F-Luc). Conditions: for IC50: read-out: IC50 of Infectivity. It counts as cell-based. The procedure:
as §1
(§2) To determine the inhibitory effect of hit compounds on HIV-1 infection, we used TZM-bl cells (also referred to as JC53BL-13), which express HIV-1 receptors and contain the LTR-driven F-Luc gene controlled by HIV-1 infection, as described previously but with some minor modifications. Briefly, 1 × 10^4 TZM-bl cells cultured on 96-well plates were treated in triplicate wells with 1:2 serially diluted compounds at concentrations ranging from 0 to 12.5 µM. Subsequently, the cells were infected with HIV-1NL4-3 virus obtained from the transfection of 293T cells at a multiplicity of infection (MOI) of 1. At 24 h after infection, the inhibitory effect of the hit compounds on infectivity was determined using the Bright-Glo Luciferase Assay Kit (Promega). The dose–response data are expressed as a relative percentage compared to the DMSO control (vehicle). The inhibitory effects of the hit compounds on HIV-1 replication were determined as previously described. Briefly, 4 × 10^5 PBMCs pre-activated with phytohemagglutinin M (PHA-M) were washed with fresh media and then infected with HIV-1NL4-3 or HIV-1AD8 at an MOI of 0.1 by spinoculation for 2 h. After infection, the cells were treated with hit compounds at the indicated concentrations at 3–5 days after treatment, and the inhibitory effect of hit compounds on viral replication was determined by the titration of virions from the cell supernatant using a p24 […]™ Assay Kit (PerkinElmer) according to the manufacturer’s instructions. Cell viability was determined using resazurin-based PrestoBlue™ cell viability reagent (Thermo Fisher Scientific, Waltham, MA, USA) according to the manufacturer’s instructions. The data are presented as relative percentages compared to the DMSO control (vehicle). The experiments were performed in triplicate.

In data set [3] the target is TAR RNA. Description: RNA gel mobility shift assay (biotinylated TAR RNA and ARM peptide). It counts as binding, HIV-1. Conditions: 2 nM biotinylated TAR RNA, 100 nM ARM peptide. How it is done:
To determine the inhibitory effect of hit compounds on the Tat (ARM)-TAR RNA interaction, a gel shift assay was carried out using the LightShift Chemiluminescent RNA EMSA Kit (Thermo Scientific) according to the manufacturer’s instructions, but with minor modifications suitable for our experiment. Briefly, 2 nM of 5′-biotinylated TAR RNA (nt 31) and 100 nM of ARM peptide were incubated with increasing amounts of hit compounds in the 1× REMSA binding buffer (10 mM HEPES pH 7.5, 10 mM MgCl2, 5 mM KCl, 1 mM DTT, and v/v 5 % glycerol) supplemented with 8 units/reaction of RNase OUT (Invitrogen) (final: 20 µL) at 20 °C for 20 min. Subsequently, the reaction was separated on a 3–12% native gradient PAGE gel. The RNA was then transferred to a nylon membrane to detect the mobility-shifted biotinylated TAR RNA using StAV-horseradish peroxidase conjugate. Chemiluminescence was detected using a GBox Chemi chemi-luminometer (Syngene, Fredrick, MD, USA).

In data set [4] the test system is HIV-1NL4-3 (X4-tropic). The data set is described as follows: HIV-1 replication assay in PBMCs (p24), HIV-1NL4-3. It counts as cell-based. The following applies: PHA-preactivated PBMCs, MOI 0.1, 72 h; 460-G06 at 12.5-100 nM. The procedure: (§3) Figure 6 Phytohemagglutinin-preactivated peripheral blood mononuclear cells were infected with HIV-1NL4-3 (A) or HIV-1AD8 (B) at an MOI of 0.1 for 2 h and then treated with compounds at indicated concentrations for 72 h. […] The data are expressed as the mean ± SD (n = 3). * p < 0.05 indicates a comparison with the cells treated with DMSO (vehicle). ARVs, anti-retroviral drugs; EFV, efavirenz; DOL, dolutegravir; AZT, azidothymidine.
(§4) The experiments were performed in triplicate.

The subject of data set [5] is HIV-1AD8 (R5-tropic). The data set is described as follows: HIV-1 replication assay in PBMCs (p24), HIV-1AD8. It counts as cell-based. The following applies: PHA-preactivated PBMCs, MOI 0.1, 72 h; 460-G06 at 12.5-100 nM. The procedure: as §3, §4
The subject of data set [6] is TZM-bl cells. Description: in vitro. Conditions: TZM-bl cells. How it is done:
as §1
as §2, with “Subsequently, the cells were infected with HIV-1NL4-3 virus obtained from the transfection of 293T cells at a multiplicity of infection (MOI) of 1.” left out, “Briefly, 4 × 10^5 PBMCs pre-activated with phytohemagglutinin M (PHA-M) were washed with fresh media and then infected with HIV-1NL4-3 or HIV-1AD8 at an MOI of 0.1 by spinoculation for 2 h.” left out, “The data are presented as relative percentages compared to the DMSO control (vehicle). The experiments were performed in triplicate.” left out

In data set [7] the test system is Tat (ARM)-TAR RNA interaction. Conditions: 10-fold excess competitor, 50 nM analytes. How it is done: To test whether our assay is applicable for screening specific inhibitors of the Tat-TAR RNA interaction, inhibition assays were performed with known inhibitors of the Tat-TAR RNA interaction. […] A dose–response competition assay was conducted at inhibitor concentrations of 0–100 μM to determine their inhibitory curves in our assay. […] Additionally, a dose-responsive competition assay using RNA fragments was performed to validate the specificity of the assay.
Data are expressed as the mean ± SD (n = 3) compared to a control lacking an RNA competitor.
The indicated concentrations of ARM and Cy5-TAR RNA fragments were incubated in 20 μL of 1× LANCE ultra assay buffer in 384-well microtiter plates with or without inhibitor (competitor) for 30 min at 20 °C in the dark. […] The reaction was performed in a final volume of 25 μL. Small volumes of the reaction solution were added automatically using Assist-Plus (Integra Bioscience, Zisers, Switzerland). After adding all the assay components, the plates were sealed with a clear cover. The ARM-TAR RNA interaction signal was measured in an EnSight multimode plate reader (PerkinElmer) using the LANCE protocol of the time-resolved fluorescence (TRF) mode in the Kaleido software (PerkinElmer), according to the manufacturer’s protocol. Briefly, the excitation light was directed to the donor (Eu) from the Xenon flash lamp at 320 nm selected by an optical filter, and then, an integration time of 100 μs and a delay time of 70 μs were provided to remove short-lived background signals; subsequently, two emission lights were detected at 615 nm for the donor (Eu) and 665 nm for the acceptor (Cy5). The TRF was measured from the top using an excitation filter and emission monochromators in a single measurement mode. The TR-FRET output signal was expressed as the emission ratio of acceptor/donor (665/615 nm × 1000) fluorescence counts. The fold activity of the TR-FRET signal for ARM-TAR RNA interaction was calculated compared to the control reaction lacking the ARM peptide.

[8] abbreviates: TZM-bl cells, HIV-1NL4-3 MOI 1, 24 h, 0-12.5 μM.
Where [9] appears, read: bl-DTR cells, Dox 50 ng/mL, 24 h, F-Luc, 0-12.5 μM.

Read-outs that look alike come from different tables or passages of the source.

A word on the IC50: it is the point on the concentration scale where inhibition reaches its midpoint. `O=C(O)C1CCCc2sc(C=Cc3cc(Cl)c4c(c3)OCCO4)nc21` (centres unmarked) [Hit 458-F08, 2-(2-(8-Chloro-2,3-dihydrobenzo[b][1,4]dioxin-6-yl)vinyl)-4,5,6,7-tetrahydrobenzo[d]thiazole-4-carboxylic acid]: the “dose response of Tat activity (F-Luc), in words” value (from here on “dose response of Tat activity”) in data set [1] (0-12.5 μM, bl-DTR cells) is on record as “gradual dose-responsive inhibitory effect on Tat activity”. The IC50 in data set [2] (setting [8]) stood at 1.29 ± 0.384 µM.

On to `Cc1onc(-c2ccccn2)c1C(=O)Nc1ncc(C2CCNCC2)s1` [Hit 459-G07, 5-Methyl-N-(5-(piperidin-4-yl)thiazol-2-yl)-3-(pyridin-2-yl)isoxazole-4-carboxamide], for which the “dose response of Tat activity” value in data set [1] (0-12.5 μM, bl-DTR cells) is listed as “gradual dose-responsive inhibitory effect on Tat activity”. Also, the IC50 in data set [1] (setting [9]) is 3.93 ± 0.338 µM.

With `N=c1n(Cc2ccc(F)cc2F)c2ccccc2n1CC(O)Cn1c(-c2ccc(C(F)(F)F)cc2)noc1=O` (centres unmarked) [Hit 460-F06, 4-(3-(3-(2,4-Difluorobenzyl)-2-imino-2,3-dihydro-1H-benzo[d]imidazol-1-yl)-2-hydroxypropyl)-3-(4-(trifluoromethyl)phenyl)-1,2,4-oxadiazol-5(4H)-one], the IC50 in data set [1] (setting [9]) came out at 3.2 ± 0.438 µM.

For `CC(C)C(CNc1nc(-c2ccsc2)nc2ccccc12)N1CCN(C)CC1` (centres unmarked) [Hit 461-H04, N-(3-Methyl-2-(4-methylpiperazin-1-yl)butyl)-2-(thiophen-3-yl)quinazolin-4-amine], the “dose response of Tat activity” value in data set [1] (0-12.5 μM, bl-DTR cells) is on record as “gradual dose-responsive inhibitory effect on Tat activity”. Further, the IC50 in data set [1] (setting [9]) was found to be 10.1 ± 2.73 µM.

`Cc1ccc(-c2csc3ncnc(NCCCc4n[nH]c(N)c4C#N)c23)cc1` [Hit 463-B11, 5-Amino-3-(3-(5-p-tolylthieno[2,3-d]pyrimidin-4-ylamino)propyl)-1H-pyrazole-4-carbonitrile]: the “dose response of Tat activity” value in data set [1] (0-12.5 μM, bl-DTR cells) is “gradual dose-responsive inhibitory effect on Tat activity”. For the same compound, the concentration for half-maximal inhibition (IC50) in data set [1] (setting [9]) stood at 6.82 ± 1.88 µM; in data set [2] (setting [8]), 5.03 ± 0.31 µM.

The Kd is the constant that tells how readily two partners part at equilibrium. Turning to `Cc1nn2c(nc(NC3CCCN(C)C3)c3ccccc32)c1Cl` (centres unmarked) [Hit 463-H08, 3-chloro-2-methyl-N-(1-methylpiperidin-3-yl)pyrazolo[1,5-a]quinazolin-5-amine], in data set [1] (0-12.5 μM, bl-DTR cells), the “dose response of Tat activity” value is given as “gradual inhibition of F-Luc activity”. The IC50 in data set [1] (Human immunodeficiency virus 1, 24 h) amounted to 2.37 ± 0.16 µM; in data set [2] (Human immunodeficiency virus 1, TZM-bl, 24 h) it was 8.05 ± 0.488 µM. For the same compound, in data set [2] (TZM-bl cells), the “SI (selectivity index)” value is reported as over 1.552. The Kd in data set [3] was about 1000 µM. The “dissociation of ARM from TAR RNA, in words” value in data set [3] is “relatively less dissociation effect”. Moreover, the “inhibition of viral replication, in words” value in data set [4] and in data set [5] was “less inhibitory effect on viral replication” each time.

The term CC50 denotes the concentration giving 50% cytotoxicity. For `Cc1ccc(Nc2cc3c(n[n+]([O-])n3CCCN3CCCCC3)c3c2C(=O)c2ccccc2C3=O)cc1` [Hit 464-A09, 6,11-Dioxo-3-(3-(piperidin-1-yl)propyl)-5-(p-tolylamino)-6,11-dihydro-3H-anthra[1,2-d][1,2,3]triazole 2-oxide], the “dose response of Tat activity” value in data set [1] (0-12.5 μM, bl-DTR cells) is listed as “gradual dose-responsive inhibitory effect on Tat activity”. The “inhibitory effect on Tat, in words” value in data set [1] (3.13 μM) is given as “strong inhibitory effect”. In addition, the IC50 in data set [1] (setting [9]) was 2.27 ± 0.518 µM; in data set [2] (setting [8]), 2.03 ± 0.132 µM. Besides, the “inhibitory effect on HIV-1, in words” value in data set [2] (3.13 μM) was “strong inhibitory effect”. The “toxicity, in words” value in data set [6] (6.25 μM) is “sudden severe toxicity”. The compound further returned a CC50 in data set [6] (concentration that reduces cell viability by 50%) of 3.36 ± 0.16 µM.

In the case of GISYGDKKDDQEERA [mt ARM], the “TR-FRET signal in peptide/protein competition assay, in words” value in data set [7] is reported as “neither mt ARM nor BSA affected their interaction signals”.
